# Measured values: article PMC11251990 (Frontiers in Pharmacology, 2024)
# Legend:
# Format in all cases: biochemical
# [1] = target: T1, dipeptidyl peptidase 1 (DPP1, cathepsin C) (Rattus norvegicus, UniProt P80067); experiment: fluorogenic H-Gly-Arg-AMC cleavage assay with recombinant enzyme
# T1 construct: gene Ctsc; recombinant rat DPP1, proteolytically processed into mature form with cathepsin L
# [2] = target: T2, dipeptidyl peptidase 1 (DPP1, cathepsin C) (Canis lupus, UniProt O97578); experiment: fluorogenic H-Gly-Arg-AMC cleavage assay in crude white blood cell lysate; details: read-out: DPP1 / Dog
# T2 construct: gene CTSC; native DPP1 in dog white blood cell lysate
# [3] = target: T3, dipeptidyl peptidase 1 (DPP1, cathepsin C) (Mus musculus, UniProt P97821); experiment: fluorogenic H-Gly-Arg-AMC cleavage assay with recombinant enzyme
# T3 construct: gene Ctsc; recombinant mouse DPP1
# T3 sequence (P97821 25-134): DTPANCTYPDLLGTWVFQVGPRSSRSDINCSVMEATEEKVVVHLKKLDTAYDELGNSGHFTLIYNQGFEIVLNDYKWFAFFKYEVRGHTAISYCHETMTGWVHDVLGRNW
# T3 sequence (P97821 231-462): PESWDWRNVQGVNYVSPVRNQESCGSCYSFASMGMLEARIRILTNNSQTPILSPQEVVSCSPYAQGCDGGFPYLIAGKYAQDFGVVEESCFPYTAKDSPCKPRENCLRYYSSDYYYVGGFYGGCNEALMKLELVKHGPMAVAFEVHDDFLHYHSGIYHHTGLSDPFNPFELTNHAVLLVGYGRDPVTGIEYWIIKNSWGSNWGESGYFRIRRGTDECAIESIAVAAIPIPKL
# T2 sequence (O97578 1-109): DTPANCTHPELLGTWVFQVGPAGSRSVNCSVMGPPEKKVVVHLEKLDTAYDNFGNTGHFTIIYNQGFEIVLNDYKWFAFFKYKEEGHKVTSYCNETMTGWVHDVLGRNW
# T2 sequence (O97578 200-435): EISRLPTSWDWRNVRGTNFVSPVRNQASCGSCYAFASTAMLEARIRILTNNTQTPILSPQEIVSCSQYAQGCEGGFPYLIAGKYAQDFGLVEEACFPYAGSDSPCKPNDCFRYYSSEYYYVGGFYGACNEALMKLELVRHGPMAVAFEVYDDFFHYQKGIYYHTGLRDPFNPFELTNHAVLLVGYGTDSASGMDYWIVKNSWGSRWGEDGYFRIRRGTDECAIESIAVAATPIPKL
# T1 sequence (P80067 25-134): as the sequence (P97821 25-134) above, with S23H, S24P, D27H, A35P, V42I, L54V, H59Y, R86K, H88S, T89R counted along it
# T1 sequence (P80067 230-393): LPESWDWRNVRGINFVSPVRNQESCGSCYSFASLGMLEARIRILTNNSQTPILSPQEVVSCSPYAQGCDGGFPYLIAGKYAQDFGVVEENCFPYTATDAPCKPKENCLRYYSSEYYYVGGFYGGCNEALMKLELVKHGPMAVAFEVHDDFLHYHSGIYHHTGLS
# T1 sequence (P80067 394-462): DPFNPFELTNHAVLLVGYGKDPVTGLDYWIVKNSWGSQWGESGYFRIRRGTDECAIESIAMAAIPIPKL
compound,measurement,setting,value
Cn1c(=O)oc2ccc(-c3ccc(C[C@@H](C#N)NC(=O)[C@@H]4CNCCCO4)cc3)cc21 [brensocatib],IC50,[1],51.1 nM
same,IC50,[2],38.1 nM
same,IC50,[3],24.1 nM
